Patent publication US20020107269A1, “Benzoxazole LPAAT-B inhibitors and uses thereof” (CELL THERAPEUTICS, INC., priority 2000, published 2002)

Target: T1, LPAAT-β (Homo sapiens, UniProt O15120)
T1 construct: the full-length human LPAAT-β cDNA was amplified by PCR; poly-histidine tag (N); made in house; host or cells: Sf9 insect cells (baculovirus, pFastBac HTc); membrane fraction used
T1 sequence (O15120 24-278): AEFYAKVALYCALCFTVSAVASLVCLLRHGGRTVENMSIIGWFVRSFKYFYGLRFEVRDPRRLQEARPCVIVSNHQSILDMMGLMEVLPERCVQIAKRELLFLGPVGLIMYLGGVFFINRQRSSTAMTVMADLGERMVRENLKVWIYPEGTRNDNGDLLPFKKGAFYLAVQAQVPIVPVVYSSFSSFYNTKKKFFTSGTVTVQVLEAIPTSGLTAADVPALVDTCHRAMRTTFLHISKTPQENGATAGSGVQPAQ
Test: LPAAT-β colorimetric assay (DTNB detection of released CoA)
Format: biochemical
Conditions: Sf9 cell membrane overexpressing LPAAT-β; 18:1-CoA and sn-1-18:1 lysoPA; absorbance at 405 nm; read-out: LPAATβ Colorimetric Assay IC50
From the text: For the construction of Baculovirus expression vectors, the full-length human LPAAT-β cDNA was amplified by PCR from the DNA template pCE9.LPAAT-β (West et al., DNA Cell Biol. 16:691-701 (1997)) using the primers 5′-TGATATCCGAAGAAGATCTTATGGAGCTGTGGCCGTGTC-3′ (olpb1F) and 5′-CAGGCTCTAG ACTACTGGGC CGGCTGCAC-3′ (olpb1R). The ˜870 bp fragment generated was reamplified by PCR using the primers 5′ CCTACGTCG ACATGGAACAAAAATTGATATCCGAAGAAGATC-3′ (olpb2F) and 5′-CAGGCTCTAG ACTACTGGGC CGGCTGCAC-3′ (olpb1R). The ˜890 bp fragment generated was then cleaved with Sal I and Xba I for insertion into pFastBac™ HTc vector (Life Technologies, Gaithersberg, Md.) between the Sal I and Xba I sites for the generation of the plasmid pFB.LPAAT-β. This plasmid was then transformed into E. coli DH10Bac™ (Life Technologies, Gaithersberg, Md.) for the generation of recombinant Bacmid DNA for transfection into HighFive (Invitrogen, San Diego, Calif.) or SF9 insect cells for the production of recombinant Baculovirus stocks using the protocol described in the Bac-to-Bac® Baculovirus Expression System (Life Technologies, Gaithersberg, Md.), a eukaryotic expression system for generating recombinant baculovirus through site-specific transposition in E. coli. Viral stocks harvested from the transfected cells can then be used to infect fresh insect cells for the subsequent expression of LPAAT-β fusion protein with a poly-histidine tag and a myc-epitope near its N-terminus. The membrane fraction from these Sf9 cells would be the source of LPAAT enzyme.
For the preparation of membranes From Sf9 Cells, all steps are performed on ice or at 4° C. Sf9 cell pellets ([…]) were thawed and resuspended in 1-2 ml of buffer A (20 mM Hepes, pH 7.5, 1 mM DTT, 1 mM EDTA, 20% w/v glycerol, 1 mM Benzamidine, 1 μg/ml soybean trypsin inhibitor (SBTI), 1 μg/ml pepstatin A) w/o DTT but with 1 mM Pefabloc. The cells were lysed by sonication using a Branson Sonifier at output=2, duty cycle=2, 10 pulses each at 10 s. with the tip of small sonicator probe submerged but not touching the walls. DTT was then added to 1 mM from a 1M stock. The samples were centrifuged at 1500 rpm for 5 min. The low speed supernatant was saved and centrifuged (TLA 100.3 rotor, polycarbonate tubes, 2 ml/tube or 1.5 ml/tube minimum) at 100000×g for 1 hr. The high speed pellet was resuspend in Buffer A with a probe sonicator (10 pulses @ output #2 and duty cycle 20%) as a source of LPAAT enzyme.
LPAAT-β catalyzes the transfer of an acyl group from a donor such as acyl-CoA to LPA. The transfer of the acyl group from acyl-CoA to LPA leads to the release of free CoA, which can be reacted with the thiol reagent, 5,5′-dithiobis(2-nitrobenzoic acid) (DTNB). The reaction between DTNB and the free sulfhydryl group from CoA generates a yellow-colored product, 3-carboxylato-4-nitrothiophenolate (CNP), that absorbs at 413 nm. LPAAT-β derived from Sf9 cell membrane overexpressing LPAAT-β were resuspended in HEPES saline buffer (20 mM HEPES pH 7.5, 150 mM NaCl), 1 mg/ml BSA and 72 μl aliquots were distributed into 96-well microtiter plates. 8 μl of compound of interest at 200 μM dissolved in 100% DMSO was added into each well. 20 μl of 1 mM 18:1-CoA and 1 mM sn-1-18:1 lysoPA was then added to each well to initiate the reaction and allowed to run at room temperature for 25 min. 100 μl of 1 mM DTNB in 100% ethanol was then added to each well to quench the reaction and for color development. The absorbance at 405 nm, measured using a spectrophotometer plate reader, is proportional to the activity of LPAAT-β in the sample. This calorimetric assay was used for the high throughput screening of LPAAT inhibitors. […] Compounds that gave a reading of less than 0.06 arbitrary units (indicated by arrow on right margin) were selected for further study.

Compound | IC50 [nM]
CCC(=O)N(C)c1ccc(Cl)c(-c2nc3cc(C)ccc3o2)c1 [CT-32019, N-(4-Chloro-3-(5-methyl-benzooxazol-2-yl)-phenyl)-N-methyl-propionamide] | 12000
CNC(=O)Nc1ccc(Cl)c(-c2nc3cc(C)ccc3o2)c1 [CT-32021, 1-(4-Chloro-3-(5-methyl-benzooxazol-2-yl)-phenyl)-3-methyl-urea] | 4000
C#CCOC(=O)Nc1ccc(Cl)c(-c2nc3c(C)cccc3o2)c1 [CT-32079, (4-Chloro-3-(4-methyl-benzooxazol-2-yl)-phenyl)-carbamic acid Prop-2-ynyl Ester] | 160
CCC(=O)Nc1ccc(Cl)c(-c2nc3cc(C(F)(F)F)ccc3s2)c1 [CT-32142, N-(4-Chloro-3-(5-trifluoromethyl-benzothiazol-2-yl)-phenyl)-propionamide] | 220
C#CCOC(=O)Nc1ccc(Cl)c(-c2nc3ccccc3o2)c1 [CT-32154, (3-Benzooxazol-2-yl-4-chloro-phenyl)-carbamic Acid Prop-2-ynyl Ester] | 50
CCC(=O)Nc1ccc(Cl)c(-c2nc3cc(Cl)ccc3o2)c1 [CT-32160, N-(4-Chloro-3-(5-chloro-benzooxazol-2-yl)-phenyl)-propionamide] | 350
C#CCOC(=O)Nc1ccc(Cl)c(-c2nc3cc(Cl)ccc3o2)c1 [CT-32161, (4-Chloro-3-(5-chloro-benzooxazol-2-yl)-phenyl)-carbamic Acid Prop-2-ynyl Ester] | 35
C#CCOC(=O)Nc1ccc(Cl)c(-c2nc3cc(C(F)(F)F)ccc3o2)c1 [CT-32173, (4-Chloro-3-(5-trifluoromethyl-benzooxazol-2-yl)-phenyl)-carbamic Acid Prop-2-ynyl Ester] | 140
C#CCOC(=O)Nc1ccc(Cl)c(-c2nc3cc(Cl)ccc3s2)c1 [CT-32192, (4-Chloro-3-(5-chloro-benzothiazol-2-yl)-phenyl)-carbamic Acid Prop-2-ynyl ester] | 6
N#CCC(=O)Nc1ccc(Cl)c(-c2nc3cc(Cl)ccc3o2)c1 [CT-32214, N-[4-Chloro-3-(5-chloro-benzooxazol-2-yl)-phenyl]-2-cyano-acetamide] | 270
N#CCC(=O)Nc1ccc(Cl)c(-c2nc3cc(Cl)ccc3s2)c1 [CT-32242, N-(4-Chloro-3-(5-chloro-benzothiazol-2-yl)-phenyl)-2-cyano-acetamide] | 15
C#CCOC(=O)Nc1ccc(Cl)c(-c2nc3ncccc3o2)c1 [CT-32259, (4-Chloro-3-oxazolo[4,5,b]pyridin-2-yl-phenyl)-carbamic Acid Prop-2-ynyl Ester] | 800
CC#CCOC(=O)Nc1ccc(Cl)c(-c2nc3cc(Cl)ccc3s2)c1 [CT-32262, (4-Chloro-3-(5-chloro-benzothiazol-2-yl)-phenyl)-carbamic Acid But-2-ynyl Ester] | 25
C#CCCOC(=O)Nc1ccc(Cl)c(-c2nc3cc(Cl)ccc3s2)c1 [CT-32277, [4-Chloro-3-(5-chloro-benzothiazol-2-yl)-phenyl]-carbamic Acid But-3-ynyl Ester] | 55
C#CCCC(=O)Nc1ccc(Cl)c(-c2nc3cc(Cl)ccc3s2)c1 [CT-32278, Pent-4-ynoic acid [4-chloro-3-(5-chloro-benzothiazol-2-yl)-phenyl]-amide] | 40

Continued by falling IC50, values first:

IC50 [nM] | Compound
15500 | CCC(=O)Nc1ccc(F)c(-c2nc3cc(C)ccc3o2)c1 [CT-32011, N-(4-Fluoro-3-(5-methyl-benzooxazol-2-yl)-phenyl)-propionamide]
10800 | COC(=O)Nc1ccc(Cl)c(-c2nc3cc(C)ccc3n2C)c1 [CT-32061, (4-Chloro-3-(1,5-dimethyl-1H-benzoimidazol-2-yl)-phenyl)-carbamic Acid Methyl Ester]
1500 | COC(=O)Nc1ccc(C)c(-c2nc3cc(C)ccc3o2)c1 [CT-32036, (4-Methyl-3-(5-methyl-benzooxazol-2-yl)-phenyl)-carbamic Acid Methyl Ester]
1200 | C#CCOC(=O)Nc1ccc(C)c(-c2nc3cccnc3o2)c1 [CT-32290, (4-Methyl-3-oxazolo[5,4,b]pyridin-2-yl-phenyl)-carbamic Acid Prop-2-ynyl Ester]
900 | CCC(=O)Nc1ccc(Cl)c(-c2nc3ccccc3o2)c1 [CT-32008, N-(3-Benzooxazol-2-yl-4-chloro-phenyl)-propionamide]
500 | COC(=O)Nc1ccc(Cl)c(-c2nc3ccccc3o2)c1 [CT-32009, (3-Benzooxazol-2-yl-4-chloro-phenyl)-carbamic Acid Methyl Ester]
300 | COC(=O)Nc1ccc(Cl)c(-c2nc3cc(Cl)ccc3o2)c1 [CT-32053, (4-Chloro-3-(5-chloro-benzooxazol-2-yl)-phenyl)-carbamic Acid Methyl Ester]
200 | COC(=O)Nc1ccc(Cl)c(-c2nc3cc(C(F)(F)F)ccc3s2)c1 [CT-32073, (4-Chloro-3-(5-trifluoromethyl-benzothiazol-2-yl)-phenyl)-carbamic Acid Methyl Ester]
190 | C#CCOC(=O)Nc1ccc(Cl)c(-c2nc3cc(C)ccc3o2)c1 [CT-32037, (4-Chloro-3-(5-methyl-benzooxazol-2-yl)-phenyl)-carbamic Acid Prop-2-ynyl Ester]
190 | N#CCC(=O)Nc1ccc(Cl)c(-c2nc3cccnc3o2)c1 [CT-32271, N-(4-Chloro-3-oxazolo[5,4,b]pyridin-2-yl-phenyl)-2-cyano-acetamide]
175 | [N-]=[N+]=NCC(=O)Nc1ccc(Cl)c(-c2nc3cc(Cl)ccc3o2)c1 [CT-32289, 2-Azido-N-[4-chloro-3-(5-chloro-benzooxazol-2-yl)-phenyl]-acetamide]
150 | C#CCOC(=O)Nc1ccc(C)c(-c2nc3cc(Cl)ccc3s2)c1 [CT-32268, [3-(5-chloro-benzothiazol-2-yl)-4-methyl-phenyl]-carbamic Acid Prop-2-ynyl Ester]
60 | C#CCOC(=O)Nc1ccc(Cl)c(-c2nc3cc(Cl)ccc3n2C)c1 [CT-32243, [4-Chloro-3-(5-chloro-1-methyl-1H-benzoimidazol-2-yl)-phenyl]-carbamic Acid Prop-2-ynyl Ester]
40 | COC(=O)Nc1ccc(Cl)c(-c2nc3cc(Cl)ccc3s2)c1 [CT-32191, [4-Chloro-3-(5-chloro-benzothiazol-2-yl)-phenyl]-carbamic Acid Methyl Ester]
40 | C#CCOC(=O)Nc1ccc(C)c(-c2nc3cc(C(F)(F)F)ccc3s2)c1 [CT-32203, 4-Methyl-3-(5-trifluoromethyl-benzothiazol-2-yl)-phenyl-carbamic Acid Prop-2-ynyl Ester]
15 | C#CCOC(=O)Nc1ccc(Cl)c(-c2nc3cc(C(F)(F)F)ccc3s2)c1 [CT-32143, (4-Chloro-3-(5-trifluoromethyl-benzothiazol-2-yl)-phenyl)-carbamic Acid Prop-2-ynyl Ester]
